Experimental data reported in patent US5496703A, “Indirect immunoassay for dioxinlike compounds” (priority 1993, dated 1996).
Where “and” joins values, the source holds several entries; their conditions need not be identical. Identical values can stand only once. Entries after “also recorded” stand apart in the source; their conditions may differ.

Key:
[1] = test system: protein tyrosylphosphorylation of hepatic S-9 proteins; assay: Immunoblot / densitometry of hepatic S-9 phosphotyrosyl proteins, mice dosed i.p.; format: in vivo, C57BL/6 mice
Method: Female, C57BL/6 mice (or any cytochrome P-450IA1 inducible strain) were obtained from Harton Sprague Dawley (Indianapolis, Ind.). Experiments were performed using four to six week old, female mice weighing approximately 16 to 20 g. Mice were fed Prolab RMH 1000 rat, mouse and hamster food (Agway, Cortland, N.Y.) and received tap water ad libitum. All mice were housed three to five per cage and maintained on a photoperiod of 12 hours. Mice were killed 24 hours following an intraperitoneal injection of either corn oil alone or TCDD (Analabs) at 0.25, 0.5, 1, 2, 4, 10, 50 μg/kg, the volume of the injections ranged from 0.1 to 0.2 ml per mouse. Hepatic S-9 fractions were prepared by homogenizing the liver in 3 times the volume of 0.15M KCl. Following a 9000×g centrifugation for 20 minutes, the supernatant (S-9) fraction was carefully removed and quickly frozen for storage at -80° C.
The separation of S-9 proteins by means of SDS PAGE was performed by mixing the S-9 1:1 with a double strength sodium dodecyl sulfate sample buffer and heating the solution at 100° C. for 3 minutes prior to one-dimensional SDS polyacrylamide gel electrophoresis with 10% polyacrylamide. After electrophoresis, a Milliblot SDS electroblot apparatus (Millipore, Bedford, Mass.) was used to transfer the proteins from the polyacrylamide gels to an Immobilon™ membrane filter (Millipore). Complete transfers were accomplished in 25-30 minutes at 500 mA and were assessed by tracking pre-stained molecular weight standards onto the membrane filter. Membrane filters were blocked by incubating in TBS (Tris buffered saline) containing 5% milk for 30 minutes at 37° C. The membranes were then washed in TBST (TBS with 0.05% Tween 20) and incubated overnight with antiphosphotyrosine monoclonal antibody (1.5 μg/mL) in TBST. The primary antibody was removed, and the membranes were washed four times in TBST. To visualize the antibody reaction, the membranes were incubated for 3 hours at 37° C. with alkaline phosphatase-conjugated antimouse IgG diluted 1:1000 in TBST, washed 3 times in TBST, and developed for 15 to 30 minutes. Determination of molecular weights of immuno-stained proteins was performed by adding molecular weight standards (Bio Rad) to reference lanes and staining the membrane filters with amido black.
The indicated densitometric measurements were made on a BioImage AK Kodak Visage 110.
An estimate of the limit of detection of dioxinlike activity can be made using the 0.25 μg/kg dose as the minimally effective dose. At this level of administration of TCDD, the 37 kDalton band becomes easily visible. Assuming a 20 g mouse, the diethyl ether extract would have to contain 5 ng of dioxin equivalents to initiate a tryosylphosphorylation of the 37 kDalton protein. […]

[2] = test system: cytochrome P-450IA1; assay: Ethoxyresorufin O-deethylase assay (EROD), X3 cells; format: cell-based, human; conditions: 16 hours
Method: The X3 human lymphoblastoma cells (Genetest, Wolburn, Mass.) were grown in 75 cm^2 T-flasks in RPMI 1640 medium (Gibco) containing 9% horse serum. Any cell or cell line expressing cytochrome P-450IA1 may be used. The cells were cultured at 37° C. in a 5% CO2 (balance air) environment. Cells were subcultured by centrifuging (1000 rpm, 3 minutes) and resuspended in fresh media to a volume of 50 mL (at a cell density of 1.0×10^6 cells/mL). The TCDD-corn oil solution was homogenized with serum to a final concentration of 0.10 μg/mL. The TCDD-serum was added at concentrations of 0, 0.02, 0.05, 0.1, 0.5 and 1.0 nM per flask and incubated for 16 hours. […] A final cell count was then determined.
Resorufin (hydroxyphenoxazone) and ethoxyresorufin were purchased from Molecular Probes (Junction City, Oreg.). EROD was measured by following the increase in fluorescence due to the formation of resorufin by dealkylation of its ethoxy derivative. […] A baseline of fluorescence was recorded at an excitation wavelength of 530 nm and an emission wavelength of 585 nm. The reaction was started with the addition of NADPH and the dealkylation of the derivative to resorufin was followed by a progressive increase in fluorescence as resorufin was generated. Recordings were standardized by measuring the fluorescence of freshly generated resorufin from resorufin acetate (Sigma, St. Louis, Mo.) prior to each assay. […]

[3] = target: Ah receptor; conditions: cited from earlier work
[4] = test system: human receptor; conditions: cited from earlier work
[5] = test system: AHH and delta-ALA (delta-aminolaevulinic acid) synthetase; conditions: versus other inducers, such as 3-methyl-cholanthrene; cited from earlier work
[6] = test system: EGF receptor; conditions: cited from earlier work
[7] = test system: protein kinase C; conditions: cited from earlier work

For Clc1cc2c(cc1Cl)Oc1cc(Cl)c(Cl)cc1O2 [TCDD, 2,3,7,8-tetrachlorodibenzo-p-dioxin], the minimal effective dose ([1]; Mus musculus, ip, 24 h, in vivo limit-of-detection estimate, read-out: minimally effective dose (37 kDalton band easily visible)) was 0.25 µg/kg, the ED50 ([1]; Mus musculus, ip, densitometry of immunoblot, i.p., 24 hours after dosing, read-out: ED50, 44 kDalton protein tyrosylphosphorylation) was 0.5 µg/kg and the “dose of maximal 44 kDalton protein tyrosylphosphorylation” value ([1]; densitometry of immunoblot, i.p., 24 hours after dosing) was 1 μg TCDD/kg. The “tyrosylphosphorylation of the 37 kDalton protein” value ([1]; immunoblot, i.p., 24 hours) was “resulted in the tyrosylphosphorylation of the 37 kDalton protein; also recorded: highly phosphorylated at tyrosine residues”, the “concentration of maximal EROD activity” value [2] was 2 nM and 1 nM and the EC50 ([2]; probit model) was 0.3 nM. For the same molecule, the “equilibrium dissociation constant (Kd), earlier Scatchard analysis” value ([3]; almost all Ah receptors studied) was “nM range”, the “Kd, newer experimental approaches” value [3] was “pM range” and the “binding affinity to Ah receptor” value [3] was “binds most strongly”. The “binding to human receptor” value [4] was “Weaker binding”, the “potency in induction of AHH and delta-ALA synthetase” value [5] was “orders of magnitude more potent” and the “plasma membrane EGF receptor levels” value [6] was “up-regulates plasma membrane EGF receptor levels”. For the same molecule, the “protein kinase C activity” value [7] was “increases the activity of protein kinase C”.
